In patent US10434038B2, “Solid phosphonate salts as an add-on in endodontics” (smartodont GmbH, priority 2016, dated 2019):
“Also recorded” adds a separate entry of the source.

Columns and labels:
[1] = available chlorine over one hour in mixtures of a chelator and a sodium hypochlorite solution, titration with sodium thiosulfate (FIGS. 2 and 3); type: physicochemical; conditions: for loss of available hypochlorite anions: admixture into sodium hypochlorite solution
Description: To measure the amount of hypochlorite, it has to be transferred by acidification to chlorine, which oxidizes potassium iodide to iodine. The latter is then titrated with a sodium thiosulfate solution.
In particular, the chlorine reduction from a 9 weight percentage and 18 weight percentage of Na4HEDP with reference to the total weight of the sodium hypochlorite solution as well as the chlorine reduction from a 3 weight percentage and 18 weight percentage of Na4EDTA with reference to the total weight of the sodium hypochlorite solution, respectively, was monitored over one hour, which is the normal duration of an endodontic treatment. The Na4HEDP and the Na4EDTA were each dissolved in a sodium hypochlorite solution comprising 1 weight percentage of sodium hypochlorite with reference to the total weight of the sodium hypochlorite solution.
The amount of chlorine over time was compared with a control solution of 1 weight percentage of pure sodium hypochlorite. In order to determine the amount of the available chlorine, aliquots of each solution (approximately 0.5 grams) were removed after 1 minute, 10 minutes, 20 minutes, 30 minutes and 60 minutes and assessed for their amount of available chlorine using a titration apparatus. Thereby, a 0.1 molar sodium thiosulfate solution was used as titrator.
In FIG. 3, the same measurements are performed using the same amounts of Na4HEDP and Na4EDTA as in FIG. 2, whereby these chelators are each admixed into a NaOCl solution comprising 5 weight percentage of NaOCl.

[2] = evolution of the pH-value of calcium hydroxide with Na4HEDP in distilled water (FIG. 4); type: physicochemical; conditions: 1 gram calcium hydroxide and 0.1 gram Na4HEDP in 10 milliliter distilled water, 10 minutes
Description: FIG. 4 depicts the evolution of the pH-value over time determined for the admixture of Na4HEDP and calcium hydroxide in solid form and only calcium hydroxide in solid form, respectively, into distilled water. The solutions are prepared by mixing 1 gram of calcium hydroxide in solid form and 0.1 gram of Na4HEDP in a glass vial. 10 milliliter of distilled water was added, and the pH measurement was started immediately and continued for 10 minutes. As a control, the pH value of 1 gram pure calcium hydroxide dissolved in 10 milliliter of distilled water was recorded, too. […] Consequently, the addition of Na4HEDP to calcium hydroxide can trigger an earlier onset of the desired disinfecting effect. In addition, the binding capacity of Na4HEDP to Ca^2+ makes it easier to remove the calcium hydroxide slurry from the root canal system before the canal is filled with an alloplastic material.

[3] = 18 weight percentage chelator in 1 weight percentage NaOCl solution, after one hour
[4] = 18 weight percentage chelator in 1 weight percentage NaOCl solution, at the start

Compound | relative amount of chlorine compared to pure NaOCl control ([1]; 3 weight percentage chelator in 1 weight percentage NaOCl solution, after one hour) | relative amount of chlorine compared to pure NaOCl control ([1]; 3 weight percentage chelator in 1 weight percentage NaOCl solution, at the start) | relative amount of chlorine compared to pure NaOCl control [1, 3] | relative amount of chlorine compared to pure NaOCl control [1, 4] | loss of available hypochlorite anions ([1]; over the course of one hour) | amount of chlorine ([1]; chelator in 5 weight percentage NaOCl solution, after one hour) | relative amount of chlorine compared to pure NaOCl control ([1]; 9 weight percentage chelator in 1 weight percentage NaOCl solution, after one hour) | relative amount of chlorine compared to pure NaOCl control ([1]; 9 weight percentage chelator in 1 weight percentage NaOCl solution, at the start) [percentage] | drop of the amount of chlorine ([1]; chelator in 5 weight percentage NaOCl solution, over the course of one hour) | pH value of the slurry compared to calcium hydroxide alone [2]
O=C([O-])CN(CCN(CC(=O)[O-])CC(=O)[O-])CC(=O)[O-].[Na+].[Na+].[Na+].[Na+] [Na4EDTA, reference compound] | below 25 weight percentage | about 95 weight percentage | below 25 weight percentage | about 75 weight percentage | pronounced loss | zero | – | – | – | –
CC(O)(P(=O)([O-])[O-])P(=O)([O-])[O-].[Na+].[Na+].[Na+].[Na+] [Na4HEDP, tetrasodium (1-hydroxyethane)-1,1′-di-phosphonate] | – | – | about 75 weight percentage | ~100 percentage | no significant loss; also recorded: does not cause any significant loss | – | about 90 weight percentage | ~100 | less than 25 percentage | higher pH value which increases faster
